24 compounds from patent US9845291B2, “Estrogen receptor modulators and uses thereof” (Genentech, Inc., priority 2014, dated 2017) can be followed below.

In the assay the target is estrogen receptor alpha (ESR1) (Homo sapiens, UniProt P03372). Description: cell-based. To be noted: for ER-alpha MCF7 HCS Sinf: MCF7 breast cancer cells, 4 hours, plateau of the maximal effect, DMSO and Fulvestrant define 0% and 100% changes in ESR1. The method, then:
Where more than one name is associated with a Formula I compound or intermediate, the chemical structure shall define the compound.
Cell plates were incubated at 37° C., for 4 hours. Fixation and permeabilization were carried out using a Biotek EL406 plate washer and dispenser as follows. […] Samples were incubated 30 minutes. Well contents was aspirated and 50 ul/well of Phosphate Buffered Saline (PBS) containing 0.5% w/v bovine serum albumen, 0.5% v/v Triton X-100 (Antibody Dilution Buffer) was added to each well. Samples were incubated for 30 minutes. Well contents were aspirated and washed 3 times with 100 ul/well of PBS. Immunofluorescence staining of estrogen receptor alpha (ESR1) was carried out using a Biotek EL406 plate washer and dispenser as follows. […] Samples were incubated for 2 hours at room temperature. Samples were washed 4 times with 100 ul/well of PBS. […] Samples were incubated for 2 hours at room temperature. Samples were washed 3 times with 100 ul/well of PBS using a Biotek EL406. Quantitative fluorescence imaging of ESR1 was carried out using a Cellomics Arrayscan V (Thermo). […] Channel 1 (DNA stain) was used to define the nuclear region (Circ). […] Data analysis was carried out using Genedata Screener Software, with DMSO and 5 nM Fulvestrant treated samples being used to define the 0% and 100% changes in ESR1. The “Robust Fit” method was used to define the inflexion point of curve (EC50) and the plateau of the maximal effect (Sin f).

Chain of estrogen receptor alpha (ESR1) (P03372 whole entry): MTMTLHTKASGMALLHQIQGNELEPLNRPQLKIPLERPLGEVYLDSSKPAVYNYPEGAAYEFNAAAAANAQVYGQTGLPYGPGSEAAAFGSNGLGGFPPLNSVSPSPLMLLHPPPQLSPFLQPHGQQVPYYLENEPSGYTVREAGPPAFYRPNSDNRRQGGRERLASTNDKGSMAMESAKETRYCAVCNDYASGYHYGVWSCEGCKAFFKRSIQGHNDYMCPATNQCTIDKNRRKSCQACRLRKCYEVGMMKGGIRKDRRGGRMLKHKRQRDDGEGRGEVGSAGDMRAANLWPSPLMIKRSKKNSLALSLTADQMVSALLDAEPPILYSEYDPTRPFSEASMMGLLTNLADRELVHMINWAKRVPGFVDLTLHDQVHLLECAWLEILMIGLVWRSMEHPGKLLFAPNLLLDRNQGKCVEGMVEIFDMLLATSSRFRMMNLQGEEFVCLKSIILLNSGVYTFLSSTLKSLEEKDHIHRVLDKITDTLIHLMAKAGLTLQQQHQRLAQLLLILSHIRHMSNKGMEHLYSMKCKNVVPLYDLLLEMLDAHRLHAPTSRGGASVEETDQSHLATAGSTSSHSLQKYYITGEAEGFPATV

Turning to `Cn1c(-c2ccc(O)cc2)c(C(=O)c2ccc(OCCN3CC(CF)C3)cc2)c2ccc(O)cc21` [Example 6, (4-(2-(3-(Fluoromethyl)azetidin-1-yl)ethoxy)phenyl)(6-hydroxy-2-(4-hydroxyphenyl)-1-methyl-1H-indol-3-yl)methanone], the midpoint of the response, the EC50, lay at 550000 pM and the “ER-alpha MCF7 HCS Sinf” value was −50%.
As to `Cc1cc(O)ccc1-c1c(C)c2cc(O)ccc2n1Cc1ccc(OCCN2CC(CF)C2)cc1` [Example 57, 1-[[4-[2-[3-(fluoromethyl)azetidin-1-yl]ethoxy]phenyl]methyl]-2-(4-hydroxy-2-methyl-phenyl)-3-methyl-indol-5-ol], a half-maximal effect (EC50) was put at 46.9 pM and the “ER-alpha MCF7 HCS Sinf” value is reported as −93.4%.
Consider `CS(=O)(=O)c1ccc(-c2ccc3c(F)c(O)ccc3c2Oc2ccc(OCCN3CC[C@@H](CF)C3)cc2)cc1` [Example 79, (R)-1-fluoro-5-(4-(2-(3-(fluoromethyl)pyrrolidin-1-yl)ethoxy)phenoxy)-6-(4-(methylsulfonyl)phenyl) naphthalen-2-ol], for which a half-maximal effect (EC50) was put at 72 pM and the “ER-alpha MCF7 HCS Sinf” value is given as −89.6%.
Turning to `Oc1ccc2c(c1)C1=C(c3cc(O)ccc3OCC1)[C@H](c1ccc(OCCN3CC(CF)C3)cc1)O2` [Example 74, (S)-8-(4-(2-(3-(fluoromethyl)azetidin-1-yl)ethoxy)phenyl)-1,8-dihydro-2H-benzo[2,3]oxepino[4,5-c]chromene-6,12-diol], the midpoint of the response, the EC50, lay at 190 pM and the “ER-alpha MCF7 HCS Sinf” value was −93.3%.
Turning to `O=C(c1ccc(OCCN2CC(CF)C2)c(F)c1)c1c(-c2ccccc2Cl)nsc1-c1ccc(O)cc1` [Example 72, [3-(2-Chloro-phenyl)-5-(4-hydroxy-phenyl)-isothiazol-4-yl]-{3-fluoro-4-[2-(3-fluoromethyl-azetidin-1-yl)-ethoxy]-phenyl}-methanone], the EC50 – broadly, the concentration at which the effect is half-maximal – came out at 15.9 pM and the “ER-alpha MCF7 HCS Sinf” value is −99.0%.
For `O=C(c1ccc(OCCN2CC(CF)C2)cc1)c1c(-c2ccc(F)cc2)sc2cc(O)ccc12` [Example 10, (4-(2-(3-(fluoromethyl)azetidin-1-yl)ethoxy)phenyl)(2-(4-fluorophenyl)-6-hydroxyhenzo[b]thiophen-3-yl)methanone] the same measures were 450 pM and −96%.
The corresponding values for `CC/C(=C(\c1ccccc1)c1ccc(OCCN2CC[C@@H](CF)C2)cc1)c1ccccc1` [Example 19, (R,Z)-1-(2-(4-(1,2-Diphenylbut-1-en-yl)phenoxy)ethyl)-3-(fluoromethyl)pyrrolidine] are 15000 pM and −75%.
For `Oc1ccc([C@H]2Sc3cc(O)ccc3O[C@H]2c2ccc(OCCN3CC(CF)C3)cc2)cc1` (racemic) [Example 29, 2-(4-(2-(3-(Fluoromethyl)azetidin-1-yl)ethoxy)phenyl)-3-(4-hydroxyphenyl)-2,3-dihydrobenzo[b][1,4]oxathiin-6-ol], it took 550 pM to reach a half-maximal effect (EC50) and the “ER-alpha MCF7 HCS Sinf” value is listed as −101%.
`O=C(c1ccc(OCCN2CC(CF)C2)cc1)c1c(-c2ccc(F)c(Cl)c2)sc2cc(O)ccc12` [Example 37, (2-(3-chloro-4-fluorophenyl)-6-hydroxybenzo[b]thiophen-3-yl)(4-(2-(3-(fluoromethyl)azetidin-1-yl)ethoxy)phenyl)methanone]: the 50% effective concentration (EC50) came to 4400 pM and the “ER-alpha MCF7 HCS Sinf” value is given as −97%.
For `Oc1ccc2c(c1)O[C@@H](c1ccc(OCCN3CC(CF)C3)cc1)C1=C2CCOc2ccc(O)cc21` [Example 78, (S)-8-(4-(2-(3-(fluoromethyl)azetidin-1-yl)ethoxy)phenyl)-2,8-dihydro-1H-benzo[2,3]oxepino[4,5-c]chromene-6,11-diol] the same measures were 611 pM and −90.0%.
As to `CC/C(=C(\c1ccc(O)cc1)c1ccc(OC[C@H](C)N2CC[C@@H](CF)C2)cc1)c1ccccc1` [Example 24, 4-((Z)-1-(4-((S)-2-((R)-3-(Fluoromethyl)pyrrolidin-1-yl)propoxy)phenyl)-2-phenylbut-1-en-1-yl)phenol], the EC50 is 180 pM and the “ER-alpha MCF7 HCS Sinf” value is recorded as −58%.
The corresponding values for `Cc1c(-c2ccccc2)n(Cc2ccc(OCCN3CC(CF)C3)cc2)c2ccccc12` [Example 4, 1-(4-(2-(3-(Fluoromethyl)azetidin-1-yl)ethoxy)benzyl)-3-methyl-2-phenyl-1H-indole] are 200000 pM and −81%.
The corresponding values for `Cc1c(-c2ccc(O)cc2Cl)n(Cc2ccc(OCCN3CC[C@@H](CF)C3)cc2)c2ccc(O)cc12` [Example 55, 2-(2-chloro-4-hydroxyphenyl)-1-(4-(2-((R)-3-(fluoromethyl)pyrrolidin-1-yl)ethoxy)benzyl)-3-methyl-1H-indol-5-ol] are 19.9 pM and −98.7%.
The corresponding values for `CS(=O)(=O)c1ccc(-c2ccc3cc(O)ccc3c2Oc2ccc(OCCN3CC(CF)C3)cc2)cc1` [Example 7, 5-(4-(2-(3-(Fluoromethyl)azetidin-1-yl)ethoxy)phenoxy)-6-(4-(methylsulfonyl)phenyl)naphthalen-2-ol] are 1600 pM and −95%.
Consider `C[C@@H](COc1ccc(Oc2c(-c3ccc(S(C)(=O)=O)cc3)ccc3cc(O)ccc23)cc1)N1CC[C@@H](CF)C1` [Example 66, 5-[4-[(2S)-2-[(3R)-3-(fluoromethyl)pyrrolidin-1-yl]propoxy]phenoxy]-6-(4-methylsulfonylphenyl) naphthalen-2-ol], for which the midpoint of the response, the EC50, lay at 6 pM and the “ER-alpha MCF7 HCS Sinf” value is listed as −93.4%.
On to `O=C(c1ccc(OCCN2CC(CF)C2)cc1)c1c(-c2ccccc2)sc2cc(O)ccc12` [Example 39, (4-(2-(3-(fluoromethyl)azetidin-1-yl)ethoxy)phenyl)(6-hydroxy-2-phenylbenzo[b]thiophen-3-yl)methanone], for which the EC50 worked out at 1600 pM and the “ER-alpha MCF7 HCS Sinf” value is −96%.
For `O=C(c1ccc(OCCN2CC[C@@H](CF)C2)c(F)c1)c1c(-c2ccccc2Cl)noc1-c1ccc(O)cc1` [Example 73, [3-(2-chlorophenyl)-5-(4-hydroxyphenyl)isoxazol-4-yl]-[3-fluoro-4-[2-[(3R)-3-(fluoromethyl)pyrrolidin-1-yl]ethoxy]phenyl]methanone] the same measures were 123 pM and −97.6%.
The corresponding values for `O=C(c1ccc(OCCN2CC(CF)C2)c(F)c1)c1c(-c2ccccc2Cl)noc1-c1ccc(O)cc1` [Example 17, [3-(2-Chloro-phenyl)-5-(4-hydroxy-phenyl)-isoxazol-4-yl]-{3-fluoro-4-[2-(3-fluoromethyl-azetidin-1-yl)-ethoxy]-phenyl}-methanone] are 300 pM and −102%.
The corresponding values for `CC/C(=C(\c1ccc(O)cc1)c1ccc(OCCN2CC[C@@H](CF)C2)cc1)c1ccccc1` [Example 22, (R,Z)-4-(1-(4-(2-(3-(Fluoromethyl)pyrrolidin-1-yl)ethoxy)phenyl)-2-phenylbut-1-en-yl)phenol] are 580 pM and −83%.
On to `Oc1ccc([C@H]2Sc3cc(O)ccc3O[C@H]2c2ccc(OCCN3CC[C@@H](CF)C3)cc2)cc1` (racemic) [Example 28, 2-(4-(2-((R)-3-(Fluoromethyl)pyrrolidin-1-yl)ethoxy)phenyl)-3-(4-hydroxyphenyl)-2,3-dihydrobenzo[b][1,4]oxathiin-6-ol], for which the EC50 was found to be 1000 pM and the “ER-alpha MCF7 HCS Sinf” value is −97%.
Regarding `COc1ccc(/C(=C(\c2ccc(OCCN3CC[C@@H](CF)C3)cc2)c2ccc3[nH]nc(F)c3c2)C2CCC2)c(Cl)c1` [Example 26, (R,E)-5-(2-(2-Chloro-4-methoxyphenyl)-2-cyclobutyl-1-(4-(2-(3-(fluoromethyl)pyrrolidin-1-yl)ethoxy)phenyl)vinyl)-3-fluoro-1H-indazole], a half-maximal response (EC50) required 600 pM and the “ER-alpha MCF7 HCS Sinf” value is −75%.
For `C[C@@H](COc1ccc([C@@H]2Oc3ccc(O)cc3S[C@@H]2c2ccc(O)cc2)cc1)N1CC[C@@H](CF)C1` (mixture of isomers) [Example 30, 2-(4-((S)-2-((R)-3-(Fluoromethyl)pyrrolidin-1-yl)propoxy)phenyl)-3-(4-hydroxyphenyl)-2,3-dihydrobenzo[b][1,4]oxathiin-6-ol] the same measures were 1100 pM and −99%.
For `Oc1ccc2c(c1)C1=C(c3cc(O)ccc3OCC1)[C@@H](c1ccc(OCCN3CC(CF)C3)cc1)O2` [Example 75, (R)-8-(4-(2-(3-(fluoromethyl)azetidin-1-yl)ethoxy)phenyl)-1,8-dihydro-2H-benzo[2,3]oxepino[4,5-c]chromene-6,12-diol] the same measures were 3200 pM and −99.7%.
For the compound `FC[C@@H]1CCN(CCOc2ccc(/C(=C(\c3ncc(C(F)(F)F)cc3Cl)C3CCC3)c3ccc4[nH]nc(F)c4c3)cc2)C1` [Example 27, (R,E)-5-(2-(3-Chloro-5-(trifluoromethyl)pyridin-2-yl)-2-cyclobutyl-1-(4-(2-(3-(fluoromethyl)pyrrolidin-1-yl)ethoxy)phenyl)vinyl)-3-fluoro-1H-indazole], the response was half-maximal at 850 pM (EC50) and the “ER-alpha MCF7 HCS Sinf” value is −73%.
